Source: ChEMBL document CHEMBL5154640, “Novel naphthyl based 1,2,4-trioxanes: Synthesis and in vivo efficacy in the Plasmodium yoelii nigeriensis in Swiss mice” (2021)
Active and inactive are the calls of the source. No cut-off for these calls is given here.

Tests used:
[1] = tested on: Plasmodium yoelii nigeriensis; assay: Antimalarial activity against Plasmodium yoelii nigeriensis infected in Swiss mouse assessed as suppression of parasitemia at 96 mg/kg, po measured after 4 days relative to control; format: functional; conditions: time 4 day
[2] = tested on: Plasmodium yoelii nigeriensis; assay: Antimalarial activity against Plasmodium yoelii nigeriensis infected in Swiss mouse assessed as suppression of parasitemia at 96 mg/kg, im measured after 4 days relative to control; format: functional; conditions: time 4 day
[3] = tested on: Plasmodium yoelii nigeriensis; assay: Antimalarial activity against Plasmodium yoelii nigeriensis infected in Swiss mouse assessed as suppression of parasitemia at 24 mg/kg, po measured after 4 days relative to control; format: functional; conditions: time 4 day
[4] = tested on: Plasmodium yoelii nigeriensis; assay: Antimalarial activity against Plasmodium yoelii nigeriensis infected in Swiss mouse assessed as suppression of parasitemia at 24 mg/kg, im measured after 4 days relative to control; format: functional; conditions: time 4 day
[5] = tested on: Plasmodium yoelii nigeriensis; assay: Antimalarial activity against Plasmodium yoelii nigeriensis infected in Swiss mouse assessed as suppression of parasitemia at 48 mg/kg, po measured after 4 days relative to control; format: functional; conditions: time 4 day
[6] = tested on: Plasmodium yoelii nigeriensis; assay: Antimalarial activity against Plasmodium yoelii nigeriensis infected in Swiss mouse assessed as suppression of parasitemia at 48 mg/kg, im measured after 4 days relative to control; format: functional; conditions: time 4 day
[7] = tested on: Plasmodium yoelii nigeriensis; assay: Antimalarial activity against Plasmodium yoelii nigeriensis infected in Swiss mouse assessed as survival at 96 mg/kg, po measured after 4 days relative to control; format: functional, organism-based; conditions: time 4.0 day
[8] = tested on: Plasmodium yoelii nigeriensis; assay: Antimalarial activity against Plasmodium yoelii nigeriensis infected in Swiss mouse assessed as survival at 48 mg/kg, po measured after 4 days relative to control; format: functional, organism-based; conditions: time 4.0 day
[9] = tested on: Plasmodium yoelii nigeriensis; assay: Antimalarial activity against Plasmodium yoelii nigeriensis infected in Swiss mouse assessed as survival at 48 mg/kg, im measured after 4 days relative to control; format: functional, organism-based; conditions: time 4.0 day

SMILES	Activity [1]	Activity [2]	other results
C=C(c1ccc(O[Si](C)(C)C(C)(C)C)c2ccccc12)C1COC2(CCCC2)OO1 (stereo not given)	27.71%	–	–
C/C(=C/CO)C12OOC3(CCCC3)OC1CC(=O)c1ccccc12 (stereo not given)	39.17%	37.43%	–
C=C(c1ccc(O[Si](C)(C)C(C)(C)C)c2ccccc12)C1COC(C)(C)OO1 (stereo not given)	14.7%	–	–
C=C(c1ccc(OCCO)c2ccccc12)C1COC2(CCCC2)OO1 (stereo not given)	57.23%	100%	–
C=C(c1ccc(O[Si](C)(C)C(C)(C)C)c2ccccc12)C1COC2(CCCCC2)OO1 (stereo not given)	45.56%	–	–
C=C(c1ccc(OCCO)c2ccccc12)C1COC2(CCCCC2)OO1 (stereo not given)	75.34%	100%	–
C=C(c1ccc(OC(C)(C)CO)c2ccccc12)C1COC2(OO1)C1CC3CC(C1)CC2C3 (stereo not given)	100%	100%	Activity [3]: 100%; Activity [4]: 27.68%; Activity [5]: 100%; Activity [6]: 70.24%; Activity [7]: Active; Activity [8]: Active
C=C(c1ccc(O[Si](C)(C)C(C)(C)C)c2ccccc12)C1COC2(OO1)C1CC3CC(C1)CC2C3 (stereo not given)	27.71%	–	–
C=C(c1ccc(OC(C)(C)CO)c2ccccc12)C1COC2(CCCCC2)OO1 (stereo not given)	100%	100%	Activity [7]: Active
C/C(=C/CO)C12OOC3(CCCCC3)OC1CC(=O)c1ccccc12 (stereo not given)	52.78%	51.63%	–
C=C(c1ccc(OCCO)c2ccccc12)C1COC(C)(C)OO1 (stereo not given)	22.89%	40%	–
C=C(c1ccc(OCCO)c2ccccc12)C1COC2(OO1)C1CC3CC(C1)CC2C3 (stereo not given)	24.1%	20.54%	–
C/C(=C/CO)C12OOC3(OC1CC(=O)c1ccccc12)C1CC2CC(C1)CC3C2 (stereo not given)	45.68%	35.89%	–
C[C@@H]1CC[C@H]2[C@@H](C)C(=O)O[C@@H]3O[C@@]4(C)CC[C@@H]1[C@]32OO4 [ARTEMISININ]	–	–	Activity [4]: 100%; Activity [5]: 100%; Activity [6]: 100%; Activity [9]: Active
C=C(c1ccc(OC(C)(C)CO)c2ccccc12)C1COC(C)(C)OO1 (stereo not given)	24.76%	48.27%	–
C=C(c1ccc(OC(C)(C)CO)c2ccccc12)C1COC2(CCCC2)OO1 (stereo not given)	100%	100%	Activity [7]: Active
C/C(=C/CO)C12OOC(C)(C)OC1CC(=O)c1ccccc12 (stereo not given)	53.17%	37.81%	–
